US9034886B2, “4-aminoquinazoline derivatives and uses thereof” (Shanghai Institute of Pharmaceutical Industry, priority 2011, dated 2015)

What was measured:
[1] = test system: HDACs; experiment: In vitro inhibition of HDACs (HDAC Inhibitor Drug Screening Kit, Biovision K340-100); assay type: biochemical; conditions: for inhibitory activity on HDACs compared with MS-275: concentrations of 2 mM, 200 μM, and 40 μM
Protocol: The in vitro inhibitory activities of the compounds towards HDACs were tested according to the instructions in the HDAC Inhibitor Drug Screening Kit (Biovision/Catalog #K340-100).
(1) The compounds to be tested were each individually prepared as 2 mM, 200 μM and 40 μM solutions and their inhibitory activities at these concentrations were tested.

[2] = target: HDAC1 (Homo sapiens (Human), UniProt Q13547); experiment: In vitro inhibition of subtype HDAC1 (HDAC1 Inhibitor Drug Screening Kit, Biovision); assay type: biochemical; conditions: for inhibition at 1 µM / inhibition at 10 µM: read-out: % Inhibition towards HDAC1; for inhibitory activity against HDAC1 compared with MS-275: both concentrations 10 μM and 1 μM
Protocol: The in vitro inhibitory activities of the compounds towards the subtype HDAC1 were tested according to the instructions in the HDAC1 Inhibitor Drug Screening Kit (Biovision).
(1) The compounds to be tested were each individually prepared as 10 μM and 1 μM solutions and their inhibitory activities at these concentrations were tested.
Each dilution sample was placed in two wells and the enzyme inhibition IC50 of the compound was tested.

[3] = test system: Hut78 T lymphocytic leukemia cells; experiment: In vitro anti-proliferative effect, CCK-8 method, Hut78; assay type: cell-based; conditions: Homo sapiens, HuT78; for inhibition at 10 µM / inhibition at 100 µM: read-out: Hut-78 (inhibition %)
How it was run: (§1)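 Percent growth inhibition, measured with CCK-8, in Hut78 and K562 leukemia cells at two compound concentrations, 10 μM and 100 μM.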

[4] = test system: PANC-1 human pancreatic cancer cells; experiment: In vitro anti-proliferative effect, CCK-8 method, PANC-1; assay type: cell-based; conditions: Homo sapiens, PANC-1
How it was run: (§2)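 Each compound is applied at 100 μM and at 10 μM. Inhibition percentages come from the CCK-8 method.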

[5] = test system: Jurkat E6-1 human T-cell lymphoma; experiment: In vitro anti-proliferative effect, CCK-8 method, Jurkat E6-1; assay type: cell-based; conditions: Homo sapiens, Jurkat E6.1
How it was run: as §2

[6] = test system: K562 human chronic myelogenous leukemia cells; experiment: In vitro anti-proliferative effect, CCK-8 method, K562; assay type: cell-based; conditions: Homo sapiens, K562
How it was run: as §1

[7] = test system: A549 human lung cancer cells; experiment: In vitro anti-proliferative effect, CCK-8 method, A549; assay type: cell-based; conditions: Homo sapiens, A549
How it was run: as §2

[8] = test system: MDA-MB-435s human breast cancer cells; experiment: In vitro anti-proliferative effect, CCK-8 method, MDA-MB-435s; assay type: cell-based; conditions: Homo sapiens, MDA-MB-435S
How it was run: as §2

[9] = test system: Hep3B2.1-7 human liver cancer cells; experiment: In vitro anti-proliferative effect, CCK-8 method, Hep3B; assay type: cell-based; conditions: Homo sapiens; for inhibition at 10 µM / inhibition at 100 µM: Hep3B cell strain, CCK-8 method; for inhibition at 10 µM: compound at 10 μM; for inhibition at 100 µM: compound at 100 μM
How it was run: as §2

[10] = test system: PC-3 human prostate cancer; experiment: In vitro anti-proliferative effect, CCK-8 method, PC-3; assay type: cell-based; conditions: Homo sapiens; for inhibition at 10 µM / inhibition at 100 µM: PC-3 cell strain, CCK-8 method; for inhibition at 10 µM: compound at 10 μM; for inhibition at 100 µM: compound at 100 μM
How it was run: as §2

[11] = test system: Colo320 human colorectal cancer cell lines; experiment: In vitro anti-proliferative effect, CCK-8 method, Colo320; assay type: cell-based; conditions: Homo sapiens, COLO 320; for inhibition at 10 µM / inhibition at 100 µM: Colo320 cell strain, CCK-8 method; for inhibition at 10 µM: compound at 10 μM; for inhibition at 100 µM: compound at 100 μM
How it was run: as §2

[12] = Maximum tolerance dose through intragastrical administration; assay type: in vivo; conditions: mice, administrated intragastrically
Protocol: Forty ICR mice, half female and half male, weighing […] were divided into four groups, 10 mice in each group. After the mice were fasted for 6 h, the compound to be tested was administrated intragastrically to each group at a volume of 0.3 ml/10 g by using a sterile plastic syringe. General physical signs and the deaths of the animals were record at 1, 2 and 4 h after the administration. The animals were then observed continuously for 14 days and their weights, physical signs and deaths were observed and recorded every day. Dead animals were dissected to see if there was any visible pathological change in the animal's viscera and pathological examination was performed on suspicious tissues and organs. A part of the experimental results is as follows.

Sequence of HDAC1 (Q13547 whole entry): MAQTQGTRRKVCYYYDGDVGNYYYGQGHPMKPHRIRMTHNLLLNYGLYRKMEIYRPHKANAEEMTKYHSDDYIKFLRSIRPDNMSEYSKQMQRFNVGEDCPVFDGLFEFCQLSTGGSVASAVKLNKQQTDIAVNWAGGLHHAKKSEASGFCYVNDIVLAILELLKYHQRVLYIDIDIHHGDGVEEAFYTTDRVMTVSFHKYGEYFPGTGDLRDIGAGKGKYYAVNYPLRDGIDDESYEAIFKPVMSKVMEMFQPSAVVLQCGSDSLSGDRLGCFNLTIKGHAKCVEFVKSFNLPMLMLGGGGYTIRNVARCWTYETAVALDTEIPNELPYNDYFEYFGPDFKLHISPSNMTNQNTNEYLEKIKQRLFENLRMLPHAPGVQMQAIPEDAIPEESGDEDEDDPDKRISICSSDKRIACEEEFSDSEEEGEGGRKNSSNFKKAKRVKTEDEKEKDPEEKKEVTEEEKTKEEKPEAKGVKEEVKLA

| SMILES | IC50 [1] [nM] | Inhibition percentage (%) towards HDACs ([1]; 40 μM) [%] | Inhibition percentage (%) towards HDACs ([1]; 200 μM) [%] | Inhibition percentage (%) towards HDACs ([1]; 2 mM) [%] | inhibition at 1 µM [2] [%] | inhibition at 10 µM [2] [%] | inhibition at 10 µM [3] [%] | inhibition at 100 µM [3] [%] | inhibition at 10 µM [4] [%] | inhibition at 100 µM [4] [%] | inhibition at 10 µM [5] [%] | inhibition at 100 µM [5] [%] | inhibition at 10 µM [6] [%] | inhibition at 100 µM [6] [%] | inhibition at 10 µM [7] [%] | inhibition at 100 µM [7] [%] | inhibition at 10 µM [8] [%] | inhibition at 100 µM [8] [%] | inhibition at 10 µM [9] [%] | inhibition at 100 µM [9] [%] | also measured |
| --- | --- | --- | --- | --- | --- | --- | --- | --- | --- | --- | --- | --- | --- | --- | --- | --- | --- | --- | --- | --- | --- |
| Nc1ccccc1NC(=O)c1ccc(Nc2ncnc3ccc([N+](=O)[O-])cc23)cc1 [Compound V-11, N-(2-aminophenyl)-4-(6-nitroquinazoline-4-amino)benzamide] | 3110 | 4.1 | 11.1 | 49.0 | 26.2 | 33.4 | 28.5 | 84.6 | 24 | 21.1 | 18.6 | 26.3 | 20.4 | 32.3 | 15.3 | 12.9 | 30.6 | 42.4 | 22.3 | 43 | inhibitory activity according to in vitro IC50 value against HDACs compared with MS-275 [1]: better inhibitory activities than MS-275; inhibition at 10 µM [10]: 21.9%; inhibition at 100 µM [10]: 18.8%; inhibition at 10 µM [11]: 2.6%; inhibition at 100 µM [11]: 4.1%; maximum tolerance dose [12]: over 2000 mg/kg |
| Nc1ccccc1NC(=O)c1ccc(Nc2ncnc3cc(F)ccc23)cc1 [Compound V-13, N-(2-aminophenyl)-4-(7-fluoroquinazoline-4-amino)benzamide] | 1140 | 1.0 | 20.1 | 50.0 | 53.1 | 83 | 19.8 | 54 | 26 | 36.8 | 19.1 | 77.8 | 25 | 65.1 | 18.3 | 57.1 | 27.5 | 89.1 | 21.5 | 69.8 | inhibitory activity against HDAC1 compared with MS-275 [2]: superior to that of MS-275; inhibition at 10 µM [10]: -1.9%; inhibition at 100 µM [10]: 48.5%; inhibition at 10 µM [11]: 0.9%; inhibition at 100 µM [11]: 34.3%; maximum tolerance dose [12]: over 5000 mg/kg |
| Nc1ccc(F)cc1NC(=O)c1ccc(Nc2ncnc3c(F)cccc23)cc1 [Compound V-14, N-(2-amino-5-fluorophenyl)-4-(8-fluoroquinazoline-4-amino)benzamide] | 3770 | 46.8 | 67.1 | 94.8 | 1.48 | 28.9 | 22 | 91.1 | -2.8 | 15.7 | 23.8 | 96.5 | 34 | 88.7 | -17.6 | 72.2 | 19.5 | 63.9 | 7.2 | 79.3 | inhibitory activity according to in vitro IC50 value against HDACs compared with MS-275 [1]: better inhibitory activities than MS-275; inhibitory activity on HDACs compared with MS-275 [1]: significantly stronger inhibitory activities than MS-275; IC50 [3]: 55.8 nM; IC50 [5]: 1390 nM; IC50 [6]: 2810 nM; IC50 [7]: 5090 nM; IC50 ([9]; Hep3B): 16000 nM; IC50 [10]: 3570 nM; inhibition at 10 µM [10]: 22.9%; inhibition at 100 µM [10]: 84.4%; IC50 [11]: 27000 nM; inhibition at 10 µM [11]: -14.3%; inhibition at 100 µM [11]: 82.7%; maximum tolerance dose [12]: over 2000 mg/kg |
| COc1cc2ncnc(Nc3ccc(C(=O)Nc4ccccc4N)cc3)c2cc1OCCCN1CCOCC1 [Compound V-17, N-(2-aminophenyl)-4-[7-methoxy-6-(3-morpholinylpropoxy)quinazoline-4-amino]benzamide] | 1720 | 39.7 | 60.7 | 86.7 | 53.9 | 76.2 | 73.4 | 93.5 | 12 | 25.1 | 20.3 | 80.2 | 33.6 | 72.4 | 29.8 | 67.9 | 32.5 | 73.3 | 18.4 | 45.7 | inhibitory activity according to in vitro IC50 value against HDACs compared with MS-275 [1]: better inhibitory activities than MS-275; inhibitory activity on HDACs compared with MS-275 [1]: significantly stronger inhibitory activities than MS-275; IC50 [2]: 735 nM; inhibitory activity against HDAC1 compared with MS-275 [2]: superior to that of MS-275; inhibition at 10 µM [10]: 41.8%; inhibition at 100 µM [10]: 67.1%; inhibition at 10 µM [11]: 4.9%; inhibition at 100 µM [11]: 28.9%; maximum tolerance dose [12]: over 5000 mg/kg |
